# Results from patent US20120108557A1, “FLUOROQUINOLONE DERIVATIVES FOR OPHTHALMIC APPLICATIONS” (ALCON RESEARCH, LTD., priority 2008, published 2012).
# Legend:
# Assay in all cases: In vitro antimicrobial activity, agar dilution MIC
# Assay type in all cases: cell-based
# Morganella morganii = test system: Morganella morganii
# Procedure: (§1) The activity of the compounds of the present invention was evaluated using an in vitro assay. Microorganisms were prepared from growth on agar media, in broth culture, or from thawed cryopreserved cultures. Fungal cultures were filtered to remove mycelial elements.
# (§2) Using Mueller Hinton II Broth, 0.9% saline or other appropriate media, a suspension of each culture was prepared and adjusted to a turbidity equivalent to that of a 0.5 McFarland Standard. (Cultures adjusted to the 0.5 McFarland Standard generally contain approximately 1.0×10^8 CFU/mL). The adjusted suspension for each culture was diluted 1:10 in the appropriate media so that the inoculum concentration approximates 1.0×10^7 CFU/mL.
# (§3) The antimicrobial agent to be tested was weighed and diluted with a volume of sterile distilled water calculated to yield the necessary starting concentration. Serial 1:2 dilutions of the antimicrobial agent in sterile distilled water were prepared (approximately 10-12 test concentrations comprise a reasonable experimental range). A known amount of each antimicrobial dilution was combined with an aliquot of agar medium calculated to yield the desired final antimicrobial test concentration and dispensed onto plates.
# (§4) The amount of antimicrobial agent to be weighed was determined using the following equation: […]
# (§5) Antimicrobial stock solutions were prepared at concentrations 5-10 times the highest concentration to be tested (routinely 1024 μg/mL). […] The stock solution was diluted to appropriate concentration using sterile water to form a working solution. The working solution was diluted two-fold, in sterile water, until the desired concentration is obtained.
# (§6) Mueller Hinton II agar was prepared as described by the manufacturer. Mueller Hinton II agar may be supplemented with 5% defibrinated sheep blood for testing streptococci. Agar was added to the serially diluted antimicrobial solution in each container. The solutions were mixed thoroughly and poured into petri dishes (about 25 mL/plate). The pH of the agar at 25° C. should be between 7.2 and 7.4.
# (§7) At least one inocula control plate was inoculated (agar medium without antimicrobial agent) from each seed plate before inoculating test plates. Test plates were inoculated starting at the lowest concentration and proceeding to the highest concentration. After all test plates were inoculated, an additional control plate (agar medium without antimicrobial agent) was inoculated. The plates were incubated in a non-CO2 incubator (or CO2 incubator depending on growth requirements); 18-24 hours at 32-35° C. was sufficient for most organisms.
# (§8) All inoculation points on the agar surface were examined for the presence of growth as compared to the inoculum control plates. The results were summarized and use to determine Minimal Inhibitory Concentrations (MICs): The MIC is the lowest concentration of the antimicrobial agent which prevents visible growth of the organism (negative score).
# Staphylococcus aureus = test system: Staphylococcus aureus
# Procedure: as §1, §2, §3, §4, §5, §6, §7, §8
# MSSA = settings: test organism 6, MSSA
# Procedure: as §1, §2, §3, §4, §5, §6, §7, §8
# Pseudomonas aeruginosa = test system: Pseudomonas aeruginosa
# Procedure: as §1, §2, §3, §4, §5, §6, §7, §8
# Acinetobacter junii = test system: Acinetobacter junii
# Procedure: as §1, §2, §3, §4, §5, §6, §7, §8
# Streptococcus pneumoniae = test system: Streptococcus pneumoniae
# Procedure: as §1, §2, §3, §4, §5, §6, §7, §8
# Escherichia coli = test system: Escherichia coli
# Procedure: as §1, §2, §3, §4, §5, §6, §7, §8
# [1] = test system: Corynebacterium amycolatum
# Procedure: as §1, §2, §3, §4, §5, §6, §7, §8
# Enterobacter hormaechei = test system: Enterobacter hormaechei
# Procedure: as §1, §2, §3, §4, §5, §6, §7, §8
# [2] = test system: Staphylococcus epidermidis
# Procedure: as §1, §2, §3, §4, §5, §6, §7, §8
# Serratia marcescens = test system: Serratia marcescens
# Procedure: as §1, §2, §3, §4, §5, §6, §7, §8
# Streptococcus mitis = test system: Streptococcus mitis
# Procedure: as §1, §2, §3, §4, §5, §6, §7, §8
# Acinetobacter baumannii = settings: test organism 26, Acinetobacter baumannii
# Procedure: as §1, §2, §3, §4, §5, §6, §7, §8
# [3] = test system: Stenotrophomonas maltophilia
# Procedure: as §1, §2, §3, §4, §5, §6, §7, §8
# Enterococcus faecalis = test system: Enterococcus faecalis
# Procedure: as §1, §2, §3, §4, §5, §6, §7, §8
# [4] = test system: Staphylococcus haemolyticus
# Procedure: as §1, §2, §3, §4, §5, §6, §7, §8
# MRSA = test system: MRSA
# Procedure: as §1, §2, §3, §4, §5, §6, §7, §8
# MRSE = test system: MRSE
# Procedure: as §1, §2, §3, §4, §5, §6, §7, §8
# [5] = test organism 35, Morganella morganii
# [6] = test organism 36, Morganella morganii
# [7] = test organism 1, Staphylococcus aureus
# [8] = test organism 2, Staphylococcus aureus
# [9] = test organism 37, Pseudomonas aeruginosa
# [10] = test organism 38, Pseudomonas aeruginosa
# [11] = test organism 27, Acinetobacter junii
# [12] = test organism 28, Acinetobacter junii
# [13] = test organism 29, Acinetobacter junii
# [14] = test organism 19, Streptococcus pneumoniae
# [15] = test organism 20, Streptococcus pneumoniae
# [16] = test organism 32, Escherichia coli
# [17] = test organism 33, Escherichia coli
# [18] = test organism 34, Escherichia coli
# [19] = test organism 24, Corynebacterium amycolatum
# [20] = test organism 25, Corynebacterium amycolatum
# [21] = test organism 31, Enterobacter hormaechei
# [22] = test organism 7, Staphylococcus epidermidis
# [23] = test organism 8, Staphylococcus epidermidis
# [24] = test organism 39, Serratia marcescens
# [25] = test organism 40, Serratia marcescens
# [26] = test organism 21, Streptococcus mitis
# [27] = test organism 22, Streptococcus mitis
# [28] = test organism 23, Streptococcus mitis
# [29] = test organism 41, Stenotrophomonas maltophilia
# [30] = test organism 42, Stenotrophomonas maltophilia
# [31] = test organism 15, Enterococcus faecalis
# [32] = test organism 16, Enterococcus faecalis
# [33] = test organism 17, Enterococcus faecalis
# [34] = test organism 18, Enterococcus faecalis
# [35] = test organism 12, Staphylococcus haemolyticus
# [36] = test organism 13, Staphylococcus haemolyticus
# [37] = test organism 14, Staphylococcus haemolyticus
smiles,measurement,setting,value
CN1CCCC2CN(c3c(F)cc4c(=O)c(C(=O)O)cn(C5CC5)c4c3F)CC21 (centres unmarked) [Compound 1],Minimal Inhibitory Concentration (MIC),Morganella morganii; [5],0.5
same,Minimal Inhibitory Concentration (MIC),Morganella morganii; [6],2
same,Minimal Inhibitory Concentration (MIC),Staphylococcus aureus; [7],0.06
same,Minimal Inhibitory Concentration (MIC),Staphylococcus aureus; [8],≦0.25
same,Minimal Inhibitory Concentration (MIC),MSSA,>4
same,Minimal Inhibitory Concentration (MIC),Pseudomonas aeruginosa; [9],>4
same,Minimal Inhibitory Concentration (MIC),Pseudomonas aeruginosa; [10],2
same,Minimal Inhibitory Concentration (MIC),Acinetobacter junii; [11],≦0.25
same,Minimal Inhibitory Concentration (MIC),Acinetobacter junii; [12],≦0.03
same,Minimal Inhibitory Concentration (MIC),Acinetobacter junii; [13],2
same,Minimal Inhibitory Concentration (MIC),Streptococcus pneumoniae; [14],0.125
same,Minimal Inhibitory Concentration (MIC),Streptococcus pneumoniae; [15],0.5
same,Minimal Inhibitory Concentration (MIC),Escherichia coli; [16],0.06
same,Minimal Inhibitory Concentration (MIC),Escherichia coli; [17],≦0.25
same,Minimal Inhibitory Concentration (MIC),Escherichia coli; [18],>4
same,Minimal Inhibitory Concentration (MIC),[1]; [19],0.06
same,Minimal Inhibitory Concentration (MIC),[1]; [20],>4
same,Minimal Inhibitory Concentration (MIC),Enterobacter hormaechei; [21],4
same,Minimal Inhibitory Concentration (MIC),[2]; [22],0.25
same,Minimal Inhibitory Concentration (MIC),[2]; [23],>2
same,Minimal Inhibitory Concentration (MIC),Serratia marcescens; [24],1
same,Minimal Inhibitory Concentration (MIC),Serratia marcescens; [25],1
same,Minimal Inhibitory Concentration (MIC),Streptococcus mitis; [26],0.5
same,Minimal Inhibitory Concentration (MIC),Streptococcus mitis; [27],0.25
same,Minimal Inhibitory Concentration (MIC),Streptococcus mitis; [28],2
same,Minimal Inhibitory Concentration (MIC),Acinetobacter baumannii,0.5
same,Minimal Inhibitory Concentration (MIC),[3]; [29],>4
same,Minimal Inhibitory Concentration (MIC),[3]; [30],0.25
same,Minimal Inhibitory Concentration (MIC),Enterococcus faecalis; [31],0.5
same,Minimal Inhibitory Concentration (MIC),Enterococcus faecalis; [32],>2
same,Minimal Inhibitory Concentration (MIC),Enterococcus faecalis; [33],>4
same,Minimal Inhibitory Concentration (MIC),Enterococcus faecalis; [34],>2
same,Minimal Inhibitory Concentration (MIC),[4]; [35],0.25
same,Minimal Inhibitory Concentration (MIC),[4]; [36],2
same,Minimal Inhibitory Concentration (MIC),[4]; [37],>4
same,Minimal Inhibitory Concentration (MIC),"MRSA; test organism 3, MRSA",>2
same,Minimal Inhibitory Concentration (MIC),"MRSA; test organism 4, MRSA",4
same,Minimal Inhibitory Concentration (MIC),"MRSA; test organism 5, MRSA",>2
same,Minimal Inhibitory Concentration (MIC),"MRSE; test organism 9, MRSE",>2
same,Minimal Inhibitory Concentration (MIC),"MRSE; test organism 10, MRSE",>2
same,Minimal Inhibitory Concentration (MIC),"MRSE; test organism 11, MRSE",>4
Nc1c(F)c(N2CC3CCCNC3C2)c(F)c2c1c(=O)c(C(=O)O)cn2C1CC1 (racemic) [Compound 3 (racemic)],Minimal Inhibitory Concentration (MIC),Morganella morganii; [5],0.5
same,Minimal Inhibitory Concentration (MIC),Morganella morganii; [6],1
same,Minimal Inhibitory Concentration (MIC),Staphylococcus aureus; [7],≦0.03
same,Minimal Inhibitory Concentration (MIC),Staphylococcus aureus; [8],0.5
same,Minimal Inhibitory Concentration (MIC),MSSA,>4
same,Minimal Inhibitory Concentration (MIC),Pseudomonas aeruginosa; [9],>4
same,Minimal Inhibitory Concentration (MIC),Pseudomonas aeruginosa; [10],2
same,Minimal Inhibitory Concentration (MIC),Acinetobacter junii; [11],≦0.25
same,Minimal Inhibitory Concentration (MIC),Acinetobacter junii; [12],0.125
same,Minimal Inhibitory Concentration (MIC),Acinetobacter junii; [13],>4
same,Minimal Inhibitory Concentration (MIC),Streptococcus pneumoniae; [14],≦0.03
same,Minimal Inhibitory Concentration (MIC),Streptococcus pneumoniae; [15],0.5
same,Minimal Inhibitory Concentration (MIC),Escherichia coli; [16],0.06
same,Minimal Inhibitory Concentration (MIC),Escherichia coli; [17],≦0.25
same,Minimal Inhibitory Concentration (MIC),Escherichia coli; [18],>4
same,Minimal Inhibitory Concentration (MIC),[1]; [19],0.06
same,Minimal Inhibitory Concentration (MIC),[1]; [20],>4
same,Minimal Inhibitory Concentration (MIC),"Enterobacter hormaechei; test organism 30, Enterobacter hormaechei",0.5
same,Minimal Inhibitory Concentration (MIC),Enterobacter hormaechei; [21],4
same,Minimal Inhibitory Concentration (MIC),[2]; [22],0.06
same,Minimal Inhibitory Concentration (MIC),[2]; [23],>2
same,Minimal Inhibitory Concentration (MIC),Serratia marcescens; [24],0.5
same,Minimal Inhibitory Concentration (MIC),Serratia marcescens; [25],1
same,Minimal Inhibitory Concentration (MIC),Streptococcus mitis; [26],0.5
same,Minimal Inhibitory Concentration (MIC),Streptococcus mitis; [27],0.06
same,Minimal Inhibitory Concentration (MIC),Streptococcus mitis; [28],1
same,Minimal Inhibitory Concentration (MIC),Acinetobacter baumannii,0.5
same,Minimal Inhibitory Concentration (MIC),[3]; [29],4
same,Minimal Inhibitory Concentration (MIC),[3]; [30],≦0.03
same,Minimal Inhibitory Concentration (MIC),Enterococcus faecalis; [31],0.125
same,Minimal Inhibitory Concentration (MIC),Enterococcus faecalis; [32],1
same,Minimal Inhibitory Concentration (MIC),Enterococcus faecalis; [33],>4
same,Minimal Inhibitory Concentration (MIC),Enterococcus faecalis; [34],>2
same,Minimal Inhibitory Concentration (MIC),[4]; [35],0.125
same,Minimal Inhibitory Concentration (MIC),[4]; [36],1
same,Minimal Inhibitory Concentration (MIC),[4]; [37],>4
same,Minimal Inhibitory Concentration (MIC),"MRSA; test organism 3, MRSA",>2
same,Minimal Inhibitory Concentration (MIC),"MRSA; test organism 4, MRSA",2
same,Minimal Inhibitory Concentration (MIC),"MRSA; test organism 5, MRSA",>2
same,Minimal Inhibitory Concentration (MIC),"MRSE; test organism 9, MRSE",>2
same,Minimal Inhibitory Concentration (MIC),"MRSE; test organism 10, MRSE",>2
same,Minimal Inhibitory Concentration (MIC),"MRSE; test organism 11, MRSE",>4
